Patent publication US10428151B2, “Treatment of hematologic malignancies with an anti-CXCR4 antibody” (BRISTOL-MYERS SQUIBB COMPANY, priority 2011, dated 2019)

Tests used:
B16-CXCR4 cells = assay: B16-CXCR4 lung metastases, C57 mouse systemic tumor model; type: in vivo; settings: day 14, 5 mg/kg IP
Protocol: In this example, the ability of the F7 anti-CXCR4 mAb to inhibit lung metastases was examined using a C57 mouse systemic tumor model. More specifically, 0.4×10^6 B16-CXCR4 cells (B16 cells transfected to express human CXCR4) were injected intravenously into each of 30 mice of the C57 strain. The mice were randomized into three groups of ten mice each, which were then treated with either (i) vehicle (PBS); (ii) IgG4 isotype control (5 mg/kg); or (iii) F7 IgG4 (5 mg/kg). The antibody or vehicle was injected intraperitoneally 30 minutes after the B16-CXCR4 cells were injected intravenously. Lungs were harvested on day 14 and the number of lung metastasis nodules was quantitated.

Ramos cells = assay: Ramos systemic tumor cell model, survival; type: in vivo, mouse; settings: second experiment
Protocol: In this example, the ability of an anti-CXCR4 human antibody to increase survival time of mice was examined using a Ramos systemic tumor cell model. In this assay, 1×10^6 Ramos cells/mouse were injected intravenously (IV) into each mouse on Day 0. The mice then received an intraperitoneal (IP) injection of a first dose of antibody on Day 1 (i.e., one day after IV administration of tumor cells) and received four more IP doses of antibody, on days 5, 8, 15 and 22 (mice treated with the positive control antibody were treated only on day 1). […] Dose response studies had previously found 15 mg/kg to be an effective dose of anti-CD19 (data not shown). Percent survival was measured at regular intervals between Day 0 and Day 50 post dosing (hind leg paralysis was used as the endpoint of the experiment). […] The median numbers of days of survival for the mice treated with either vehicle or the isotype control were 23 and 25.5 days, respectively, whereas the median number of days of survival of the mice treated with one dose of the anti-CD19 positive control was 39 days.
The median number of days of survival for the mice treated with the vehicle or the isotype controls were 23-24 days, whereas the median number of days of survival of the mice treated with one dose of the anti-CD19 positive control was 39 days.

## BMS-936564: fully human anti-CXCR4 monoclonal antibody; VH SEQ ID NO: 25, VL SEQ ID NO: 29
B16-CXCR4 cells
  Number of Lung Metastases Mean: 157
  Number of Lung Metastases Median: 186
B16-CXCR4 cells; listed as F7 Anti-CXCR4 IgG4, 5 mg/kg
  % Inhibition of Lung Mets (Mean): 56%
B16-CXCR4 cells; listed as F7 mAb, 5 mg/kg
  % Inhibition of Lung Mets (Mean): 56%
Ramos cells; 15 mg/kg
  efficacy in prolonging mouse survival: highly efficacious in prolonging mouse survival
Ramos cells; five doses 15 mg/kg, 120 days after implantation
  percent of mice survived at end of experiment: 100%
